Reference: patent US20180085330A1, “Dose Adjustment” (AbbVie Inc., priority 2016, published 2018)
Like-named read-outs stand apart in the source and are kept apart here.

Columns and labels:
[1] = Drug interaction studies: pharmacokinetic parameters of coadministered drug in the presence of glecaprevir/pibrentasvir; assay type: in vivo, human
Experimental: Drug interaction studies were performed with glecaprevir/pibrentasvir and other drugs that are likely to be coadministered and with drugs commonly used as probes for pharmacokinetic interactions.

[2] = cited from earlier work
[3] = EE/Levonorgestrel 20 μg/100 μg once daily, GLE/PIB 300/120 mg once daily
[4] = EE/Norgestimate 35 μg/250 μg once daily, GLE/PIB 300/120 mg once daily
[5] = dextromethorphan hydrobromide 30 mg single dose, GLE/PIB 300/120 mg once daily
[6] = EVG/COBI/FTC/TAF 150/150/200/10 mg once daily, GLE/PIB 300/120 mg once daily
[7] = sofosbuvir 400 mg once daily, GLE/PIB 400/120 mg once daily
[8] = losartan 50 mg single dose, GLE/PIB 300/120 mg once daily
[9] = lovastatin 10 mg once daily, GLE/PIB 300/120 mg once daily
[10] = omeprazole 20 mg single dose, GLE/PIB 300/120 mg once daily
[11] = raltegravir 400 mg twice daily, GLE/PIB 300/120 mg once daily
[12] = rilpivirine 25 mg once daily, GLE/PIB 300/120 mg once daily
[13] = simvastatin 5 mg once daily, GLE/PIB 300/120 mg once daily
[14] = tacrolimus 1 mg single dose, GLE/PIB 300/120 mg once daily
[15] = EFV/FTC/TDF 300/200/300 mg once daily, GLE/PIB 300/120 mg once daily
[16] = valsartan 80 mg single dose, GLE/PIB 300/120 mg once daily
[17] = dabigatran etexilate 150 mg single dose, GLE/PIB 300/120 mg once daily
[18] = pravastatin coadministered with clarithromycin
[19] = pravastatin 10 mg once daily, GLE/PIB 400/120 mg once daily
[20] = rosuvastatin coadministered with lopinavir/ritonavir
[21] = rosuvastatin 5 mg once daily, GLE/PIB 400/120 mg once daily

## C#CC1(O)CC[C@H]2[C@@H]3CCC4=CC(=O)CC[C@@H]4[C@H]3CC[C@@]21CC (mixture of isomers) [Norgestrel]
[1]; [3]
  Central Value Ratio (90% CI) AUC: 1.68
  Central Value Ratio (90% CI) Cmax: 1.37
  Central Value Ratio (90% CI) Cmin: 1.77
[1]; [4]
  Central Value Ratio (90% CI) AUC: 1.63
  Central Value Ratio (90% CI) Cmax: 1.54
  Central Value Ratio (90% CI) Cmin: 1.75

## C#C[C@]1(O)CC[C@H]2[C@@H]3CCC4=CC(=NO)CC[C@@H]4[C@H]3CC[C@@]21CC (mixture of isomers) [Norgestromin]
[1]; [4]
  Central Value Ratio (90% CI) AUC: 1.44
  Central Value Ratio (90% CI) Cmin: 1.45

## Nc1nc(NC2CC2)c2ncn([C@H]3C=C[C@@H](CO)C3)c2n1 [Abacavir]
[1]; ABC/DTG/3TC 600/50/300 mg once daily, GLE/PIB 300/120 mg once daily
  Central Value Ratio (90% CI) Cmin: 1.31

## Cn1c(=O)c2c(ncn2C)n(C)c1=O [Caffeine]
[1]; caffeine 100 mg single dose, GLE/PIB 300/120 mg once daily
  Central Value Ratio (90% CI) AUC: 1.35

## COc1ccc2c(c1)[C@]13CCCC[C@@H]1[C@H](C2)N(C)CC3 [Dextromethorphan]
[1]; [5]
  Central Value Ratio (90% CI) AUC: 0.75
  Central Value Ratio (90% CI) Cmax: 0.70

## COc1cc2c(cc1Cc1cccc(Cl)c1F)c(=O)c(C(=O)O)cn2[C@H](CO)C(C)C [Elvitegravir]
[1]; [6]
  Central Value Ratio (90% CI) AUC: 1.47
  Central Value Ratio (90% CI) Cmax: 1.36
  Central Value Ratio (90% CI) Cmin: 1.71

## C#C[C@]1(O)CC[C@H]2[C@@H]3CCc4cc(O)ccc4[C@H]3CC[C@@]21C [Ethinyl estradiol (EE), Ethinyl estradiol]
[1]; [3]
  Central Value Ratio (90% CI) AUC: 1.40
  Central Value Ratio (90% CI) Cmax: 1.30
  Central Value Ratio (90% CI) Cmin: 1.56
[1]; [4]
  Central Value Ratio (90% CI) AUC: 1.28
  Central Value Ratio (90% CI) Cmax: 1.31
  Central Value Ratio (90% CI) Cmin: 1.38

## C[C@@]1(F)[C@H](O)[C@@H](CO)O[C@H]1n1ccc(=O)[nH]c1=O [GS-331007]
[1]; [7]
  Central Value Ratio (90% CI) Cmin: 1.85

## CCCCc1nc(Cl)c(CO)n1Cc1ccc(-c2ccccc2-c2nn[nH]n2)cc1 [Losartan]
[1]; [8]
  Central Value Ratio (90% CI) AUC: 1.56
  Central Value Ratio (90% CI) Cmax: 2.51

## CC[C@H](C)C(=O)O[C@H]1C[C@@H](C)C=C2C=C[C@H](C)[C@H](CC[C@@H](O)C[C@@H](O)CC(=O)O)[C@H]21 [Lovastatin acid]
[1]; [9]
  Central Value Ratio (90% CI) AUC: 4.10
  Central Value Ratio (90% CI) Cmax: 5.73

## Cc1ncc2n1-c1ccc(Cl)cc1C(c1ccccc1F)=NC2 [Midazolam]
[1]; midazolam 1 mg single dose, GLE/PIB 300/120 mg once dally
  Central Value Ratio (90% CI) AUC: 1.27

## COc1ccc2[nH]c([S+]([O-])Cc3ncc(C)c(OC)c3C)nc2c1 (stereo not shown) [Omeprazole]
[1]; [10]
  Central Value Ratio (90% CI) AUC: 0.79
  Central Value Ratio (90% CI) Cmax: 0.57

## Cc1nnc(C(=O)NC(C)(C)c2nc(C(=O)NCc3ccc(F)cc3)c(O)c(=O)n2C)o1 [Raltegravir]
[1]; [11]
  Central Value Ratio (90% CI) AUC: 1.47
  Central Value Ratio (90% CI) Cmax: 1.34
  Central Value Ratio (90% CI) Cmin: 2.64

## Cc1cc(/C=C/C#N)cc(C)c1Nc1ccnc(Nc2ccc(C#N)cc2)n1 [Rilpivirine]
[1]; [12]
  Central Value Ratio (90% CI) AUC: 1.84
  Central Value Ratio (90% CI) Cmax: 2.05
  Central Value Ratio (90% CI) Cmin: 1.77

## CCC(C)(C)C(=O)O[C@H]1C[C@@H](C)C=C2C=C[C@H](C)[C@H](CC[C@@H](O)C[C@@H](O)CC(=O)O)[C@H]21 [Simvastatin acid]
[1]; [13]
  Central Value Ratio (90% CI) AUC: 4.48
  Central Value Ratio (90% CI) Cmax: 10.7

## CC(C)OC(=O)[C@H](C)N[P@](=O)(OC[C@H]1O[C@@H](n2ccc(=O)[nH]c2=O)[C@](C)(F)[C@@H]1O)Oc1ccccc1 [Sofosbuvir]
[1]; [7]
  Central Value Ratio (90% CI) AUC: 2.25
  Central Value Ratio (90% CI) Cmax: 1.66

## C=CC[C@@H]1/C=C(\C)C[C@H](C)C[C@H](OC)[C@H]2O[C@@](O)(C(=O)C(=O)N3CCCC[C@H]3C(=O)O[C@H](/C(C)=C/[C@@H]3CC[C@@H](O)[C@H](OC)C3)[C@H](C)[C@@H](O)CC1=O)[C@H](C)C[C@@H]2OC [Tacrolimus]
[1]; [14]
  Central Value Ratio (90% CI) AUC: 1.45
  Central Value Ratio (90% CI) Cmax: 1.50

## C[C@H](Cn1cnc2c(N)ncnc21)OCP(=O)(O)O [Tenofovir]
[1]; [15]
  Central Value Ratio (90% CI) AUC: 1.29
  Central Value Ratio (90% CI) Cmin: 1.38

## CCCCC(=O)N(Cc1ccc(-c2ccccc2-c2nnn[nH]2)cc1)[C@H](C(=O)O)C(C)C [Valsartan]
[1]; [16]
  Central Value Ratio (90% CI) AUC: 1.31
  Central Value Ratio (90% CI) Cmax: 1.36

## [H]/N=C(/N)c1ccc(NCc2nc3cc(C(=O)N(CCC(=O)O)c4ccccn4)ccc3n2C)cc1 [dabigatran]
[1]; [17]
  Central Value Ratio (90% CI) AUC: 2.38
  Central Value Ratio (90% CI) Cmax: 2.05

## CC[C@H](C)C(=O)O[C@H]1C[C@@H](C)C=C2C=C[C@H](C)[C@H](CC[C@@H]3C[C@@H](O)CC(=O)O3)[C@H]21 [lovastatin]
[1]; [9]
  Central Value Ratio (90% CI) AUC: 1.70

## CC[C@H](C)C(=O)O[C@H]1C[C@H](O)C=C2C=C[C@H](C)[C@H](CC[C@@H](O)C[C@@H](O)CC(=O)O)[C@H]21 [pravastatin]
[2]; [18]
  AUC increase: 2.3 fold
  Cmax increase: 2.1 fold
[1]; [19]
  Central Value Ratio (90% CI) AUC: 2.30
  Central Value Ratio (90% CI) Cmax: 2.23

## CC(C)c1nc(N(C)S(C)(=O)=O)nc(-c2ccc(F)cc2)c1/C=C/[C@@H](O)C[C@@H](O)CC(=O)O [rosuvastatin]
[2]; [20]
  AUC increase: 2.1 fold
  Cmax increase: 5 fold
[1]; [21]
  Central Value Ratio (90% CI) AUC: 2.15
  Central Value Ratio (90% CI) Cmax: 5.62

## CCC(C)(C)C(=O)O[C@H]1C[C@@H](C)C=C2C=C[C@H](C)[C@H](CC[C@@H]3C[C@@H](O)CC(=O)O3)[C@H]21 [simvastatin]
[1]; [13]
  Central Value Ratio (90% CI) AUC: 2.32
  Central Value Ratio (90% CI) Cmax: 1.99
